Reference: article PMC2766259 (Synapse (New York, N.Y.), 2009)
Like-named read-outs stand apart in the source and are kept apart here.

Experiments:
[1] = tested on: α4β2* nAChRs; conditions: cited from earlier work
[2] = tested on: α4β2* nAChRs; conditions: cited from earlier work; remark: listed apart in the source
[3] = 5-[^123I]IA SPECT of the living human brain, VOI kinetic analysis; assay type: in vivo, Humans (Homo sapiens); conditions: human, intravenous
[4] = target: high-affinity α4β2* neuronal nicotinic acetylcholine receptors (nAChRs) (Homo sapiens, UniProt P17787+P43681); assay: as above; assay type: in vivo, Humans (Homo sapiens)
[5] = Plasma metabolite analysis by column-switch HPLC after intravenous 5-[^123I]IA; assay type: in vivo, Humans (Homo sapiens); conditions: drawn simultaneously 30 minutes or later after administration
[6] = Safety and tolerability monitoring after intravenous 5-[^123I]IA; assay type: in vivo, Humans (Homo sapiens)
[7] = tested on: α4β2* nAChRs; conditions: in rats; ref Saji et al., 2002; cited from earlier work
[8] = tested on: α4β2* nAChRs; conditions: in rats; ref Saji et al., 2002; cited from earlier work; remark: listed apart in the source
[9] = tested on: α4β2* nAChRs; conditions: ref Saji et al., 2002; cited from earlier work
[10] = tested on: α4β2* nAChRs; conditions: cited from earlier work; remark: listed apart in the source
[11] = tested on: α4β2* nAChRs; conditions: pigs, CI; ref Brust et al., 2008; cited from earlier work
[12] = tested on: α4β2* nAChRs; conditions: acute treatment, baboon, ref Kassiou et al., 2001, cited from earlier work
[13] = tested on: α4β2* nAChRs; conditions: human smokers, 2-[^18F]FA; ref Brody et al., 2006; cited from earlier work

Chain of high-affinity α4β2* neuronal nicotinic acetylcholine receptors (nAChRs) (P43681 29-627 limits assumed): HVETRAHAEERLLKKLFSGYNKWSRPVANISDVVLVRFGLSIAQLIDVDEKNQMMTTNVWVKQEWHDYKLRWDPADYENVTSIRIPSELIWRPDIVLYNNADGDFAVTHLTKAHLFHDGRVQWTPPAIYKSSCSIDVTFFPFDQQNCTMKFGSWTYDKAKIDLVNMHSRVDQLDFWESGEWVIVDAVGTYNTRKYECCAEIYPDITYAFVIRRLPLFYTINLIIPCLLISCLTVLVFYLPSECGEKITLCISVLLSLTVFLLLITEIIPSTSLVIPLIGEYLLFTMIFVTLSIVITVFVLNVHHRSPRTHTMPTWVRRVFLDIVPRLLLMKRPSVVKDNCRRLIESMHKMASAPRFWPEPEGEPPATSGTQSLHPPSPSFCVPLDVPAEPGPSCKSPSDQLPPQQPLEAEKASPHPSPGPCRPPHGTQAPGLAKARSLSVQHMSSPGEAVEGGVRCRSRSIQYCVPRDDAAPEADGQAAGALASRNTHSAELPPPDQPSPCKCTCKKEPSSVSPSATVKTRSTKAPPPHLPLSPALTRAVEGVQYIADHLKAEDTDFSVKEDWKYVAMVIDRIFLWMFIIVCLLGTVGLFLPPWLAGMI
Chain of high-affinity α4β2* neuronal nicotinic acetylcholine receptors (nAChRs) (P17787 26-502): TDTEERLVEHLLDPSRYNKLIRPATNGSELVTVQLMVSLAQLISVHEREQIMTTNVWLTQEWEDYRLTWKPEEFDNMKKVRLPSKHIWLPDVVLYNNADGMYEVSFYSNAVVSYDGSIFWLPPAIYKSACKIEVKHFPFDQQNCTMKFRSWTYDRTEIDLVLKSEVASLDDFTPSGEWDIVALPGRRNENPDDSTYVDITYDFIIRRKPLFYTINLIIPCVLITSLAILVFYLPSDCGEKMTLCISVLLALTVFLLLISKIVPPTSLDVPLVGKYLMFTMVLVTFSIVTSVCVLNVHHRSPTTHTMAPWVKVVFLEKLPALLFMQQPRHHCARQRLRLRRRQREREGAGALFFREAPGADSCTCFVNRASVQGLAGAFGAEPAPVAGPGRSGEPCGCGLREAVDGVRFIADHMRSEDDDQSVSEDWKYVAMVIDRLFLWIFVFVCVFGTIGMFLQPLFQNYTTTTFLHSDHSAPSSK

Q: For `[18F]c1ncccc1OC[C@@H]1CCN1` [2-[^18F]FA, 2-[^18F]fluoro-3-(2(S)-azetidinylmethoxy)pyridine, reference compound], which “Conclusion: safety and efficacy” value ([1]; 2 monkeys, ref Kimes et al., 2003) is on record?
A: • 2-[^18F]FA is safe and efficacious in monkeys and humans.

Q: And the “Conclusion: peaks” value ([1]; a monkey, ref Dollé et al., 1999)?
A: • In baboons 2-[^18F]FA has lower peaks than [^18F]fluoronorchloroepibatidine. In a monkey 2-[^18F]FA has lower peaks than 5-[^123I]IA.

Q: What about the “Conclusion: safety and efficacy” value ([1]; ref Chefer et al., 1999) of the same molecule?
A: • 2-[^18F]FA is safe and efficacious for brain imaging in monkeys.

Q: What about the “Conclusion: peaks” value ([2]; in vivo) of the same molecule?
A: • In baboons 2-[^18F]FA has lower peaks than [^18F]fluoronorchloroepibatidine. In a monkey 2-[^18F]FA has lower peaks than 5-[^123I]IA.

Q: Which Kp ([3]; brain (cortex), 8.1 mCi, Distribution volume (DV), Cortex, subject 1, bolus) does the source give for `[123I]c1cncc(OC[C@@H]2CCN2)c1` [5-[^123I]IA, (S)-5-[^123I]iodo-3-(2-azetidinylmethoxy)pyridine] here?
A: 12.8

Q: And the Kp ([3]; brain (cortex), 8.8 mCi, Distribution volume (DV), Cortex, subject 4, bolus)?
A: 7.62

Q: And the Kp ([3]; brain (cortex), 9.3 mCi, Distribution volume (DV), Cortex, subject 3, bolus)?
A: 13

Q: And the Kp ([3]; brain (frontal lobe), 8.1 mCi, Distribution volume (DV), Frontal lobe, subject 1, bolus)?
A: 9.6

Q: What about the Kp ([3]; brain (frontal lobe), 8.8 mCi, Distribution volume (DV), Frontal lobe, subject 4, bolus) of the same molecule?
A: 5.46

Q: And the Kp ([3]; brain (frontal lobe), 9.3 mCi, Distribution volume (DV), Frontal lobe, subject 3, bolus)?
A: 8.56

Q: What about the Kp ([3]; brain (fusiform gyrus), 8.1 mCi, Distribution volume (DV), Fusiform gyrus, subject 1, bolus) of the same molecule?
A: 9.34

Q: And the Kp ([3]; brain (fusiform gyrus), 8.8 mCi, Distribution volume (DV), Fusiform gyrus, subject 4, bolus)?
A: 5.68

Q: And the Kp ([3]; brain (fusiform gyrus), 9.3 mCi, Distribution volume (DV), Fusiform gyrus, subject 3, bolus)?
A: 9.58

Q: And the Kp ([3]; brain (hippocampus), 8.1 mCi, Distribution volume (DV), Hippocampus, subject 1, bolus)?
A: 13.5

Q: What about the Kp ([3]; caudate head, Median DV of high plasma nicotine group, Caudate head, six volunteers) of the same molecule?
A: 13.7

Q: And the Kp ([3]; caudate head, Median DV of low plasma nicotine group, Caudate head, six volunteers)?
A: 21.9

Q: And the Kp ([3]; cerebellum, 8.1 mCi, Distribution volume (DV), subject 1, bolus)?
A: 8.71

Q: What about the Kp ([3]; cerebellum, 8.8 mCi, Distribution volume (DV), subject 4, bolus) of the same molecule?
A: 5.4

Q: And the Kp ([3]; cerebellum, 9.3 mCi, Distribution volume (DV), subject 3, bolus)?
A: 9.88

Q: What about the Kp ([3]; cingulate cortex, Median DV of high plasma nicotine group, Cingulate cortex, six volunteers) of the same molecule?
A: 12.6

Q: What about the Kp ([3]; cingulate cortex, Median DV of low plasma nicotine group, Cingulate cortex, six volunteers) of the same molecule?
A: 21.4

Q: What about the Kp ([3]; cingulate gyrus, 8.1 mCi, Distribution volume (DV), subject 1, bolus) of the same molecule?
A: 12.6

Q: And the Kp ([3]; cingulate gyrus, 8.8 mCi, Distribution volume (DV), subject 4, bolus)?
A: 7.55

Q: What about the Kp ([3]; cingulate gyrus, 9.3 mCi, Distribution volume (DV), subject 3, bolus) of the same molecule?
A: 12.4

Q: What about the Kp ([3]; frontal cortex, Median DV of high plasma nicotine group, Frontal cortex, six volunteers) of the same molecule?
A: 9.6

Q: And the Kp ([3]; frontal cortex, Median DV of low plasma nicotine group, Frontal cortex, six volunteers)?
A: 18

Q: What about the Kp ([3]; fusiform gyrus, Median DV of high plasma nicotine group, Fusiform gyrus, six volunteers) of the same molecule?
A: 9.46

Q: What about the Kp ([3]; fusiform gyrus, Median DV of low plasma nicotine group, Fusiform gyrus, six volunteers) of the same molecule?
A: 19.9

Q: And the Kp ([3]; head of the caudate nucleus, 8.1 mCi, Distribution volume (DV), Caudate head, subject 1, bolus)?
A: 13.7

Q: What about the Kp ([3]; head of the caudate nucleus, 8.8 mCi, Distribution volume (DV), Caudate head, subject 4, bolus) of the same molecule?
A: 7.75

Q: What about the Kp ([3]; head of the caudate nucleus, 9.3 mCi, Distribution volume (DV), Caudate head, subject 3, bolus) of the same molecule?
A: 13.1

Q: What about the Kp ([3]; hippocampus, 8.8 mCi, Distribution volume (DV), subject 4, bolus) of the same molecule?
A: 8.32

Q: And the Kp ([3]; hippocampus, 9.3 mCi, Distribution volume (DV), subject 3, bolus)?
A: 14.4

Q: What about the Kp ([3]; occipital cortex, Median DV of high plasma nicotine group, Occiptal cortex, six volunteers) of the same molecule?
A: 7.15

Q: What about the Kp ([3]; occipital cortex, Median DV of low plasma nicotine group, Occiptal cortex, six volunteers) of the same molecule?
A: 14.2

Q: And the Kp ([3]; occipital lobe, 8.1 mCi, Distribution volume (DV), Occiptal lobe, subject 1, bolus)?
A: 7

Q: And the Kp ([3]; occipital lobe, 8.8 mCi, Distribution volume (DV), Occiptal lobe, subject 4, bolus)?
A: 4.17

Q: And the Kp ([3]; occipital lobe, 9.3 mCi, Distribution volume (DV), Occiptal lobe, subject 3, bolus)?
A: 7.15

Q: What about the Kp ([3]; parietal cortex, Median DV of high plasma nicotine group, Parietal cortex, six volunteers) of the same molecule?
A: 9.78

Q: And the Kp ([3]; parietal cortex, Median DV of low plasma nicotine group, Parietal cortex, six volunteers)?
A: 17

Q: And the Kp ([3]; parietal lobe, 8.1 mCi, Distribution volume (DV), subject 1, bolus)?
A: 9.78

Q: What about the Kp ([3]; parietal lobe, 8.8 mCi, Distribution volume (DV), subject 4, bolus) of the same molecule?
A: 5.17

Q: What about the Kp ([3]; parietal lobe, 9.3 mCi, Distribution volume (DV), subject 3, bolus) of the same molecule?
A: 8.71

Q: What about the Kp ([3]; pons, 8.1 mCi, Distribution volume (DV), subject 1, bolus) of the same molecule?
A: 15.1

Q: What about the Kp ([3]; pons, 8.8 mCi, Distribution volume (DV), subject 4, bolus) of the same molecule?
A: 9.23

Q: And the Kp ([3]; pons, 9.3 mCi, Distribution volume (DV), subject 3, bolus)?
A: 20.4

Q: And the Kp ([3]; putamen, 8.8 mCi, Distribution volume (DV), subject 4, bolus)?
A: 8.74

Q: What about the Kp ([3]; putamen, 9.3 mCi, Distribution volume (DV), subject 3, bolus) of the same molecule?
A: 15.6

Q: What about the Kp ([3]; temporal cortex, Median DV of high plasma nicotine group, Temporal cortex, six volunteers) of the same molecule?
A: 8.39

Q: And the Kp ([3]; temporal cortex, Median DV of low plasma nicotine group, Temporal cortex, six volunteers)?
A: 15

Q: What about the “time of maximal cerebellar uptake” value ([4]; after injection) of the same molecule?
A: 40 min

Q: What about the “time of peak thalamic uptake” value ([4]; after injection) of the same molecule?
A: approximately 140 minutes

Q: What about the brain uptake ([4]; living human brain) of the same molecule?
A: good brain uptake

Q: And the reversibility of binding ([4]; time activity curves)?
A: reversible binding with substantial dissociation by 6 h

Q: What about the “extent of metabolism, arterial versus venous blood samples” value [5] of the same molecule?
A: identical extents of metabolism

Q: And the “vital signs and electrocardiograms” value ([6]; before administration and subsequent 24 hours)?
A: normal

Q: And the “abnormalities of behavior or movement (AIMS, BPRS)” value ([6]; before or after administration)?
A: no abnormalities of behavior or movement

Q: What about the “Electrocardiogram, blood pressure, and pulse” value ([6]; during each study, twelve healthy adults) of the same molecule?
A: did not change

Q: And the “Conclusion: safety and efficacy” value ([6]; humans, smokers, nonsmokers, secondhand smoke exposure, current study)?
A: • 5-[^123I]IA is safe, efficacious in humans (smokers, nonsmokers, people with secondhand smoke exposure

Q: And the “binding affinity relative to (−)-nicotine” value [7]?
A: seven times greater

Q: What about the “binding affinity relative to A-85380” value [7] of the same molecule?
A: comparable to A-85380

Q: What about the regional brain uptake [8] of the same molecule?
A: high uptake in the thalamus, moderate uptake in the cortex, and low uptake in the cerebellum

Q: And the “Conclusion: safety and efficacy” value ([1]; ref Chefer et al., 1998)?
A: 5-[^123 I]IA is safe and efficacious for brain imaging in monkeys.

Q: And the “Conclusion: safety and efficacy” value [9]?
A: • 5-[^123I]IA is safe, efficacious in a marmoset.

Q: And the “Conclusion: regional uptake” value ([2]; baboon, ref Baldwin et al., 2006)?
A: • Uptake high in thalamus, moderate in cortex and basal ganglia, low in cerebellum. SPECT brain radioactivity represents5-[^123I]IA distribution

Q: And the “Conclusion: safety and efficacy” value ([2]; ref Fujita et al., 2000)?
A: 5-[^123I]IA is safe, efficacious in baboons.

Q: What about the “Conclusion: metabolism and plasma protein binding by sex” value ([10]; 29 nonsmokers, ref Cosgrove et al., 2007) of the same molecule?
A: greater in women than in men

Q: And the “Conclusion: safety and efficacy” value ([10]; ref Fujita et al., 2002)?
A: • 5-[^123I]IA is safe, efficacious in humans.

Q: What about the “Conclusion: safety and efficacy” value ([10]; ref Ishizu et al., 2004) of the same molecule?
A: • 5-[^123I]IA is safe, efficacious in humans.

Q: And the “Conclusion: safety and efficacy” value ([10]; ref Mamede et al., 2004)?
A: • 5-[^123I]IA is safe, efficacious in humans.

Q: And the “Conclusion: safety and efficacy” value ([10]; ref Staley et al., 2005)?
A: • 5-[^123I]IA is safe, efficacious in humans.

Q: What about the “Conclusion: safety and efficacy” value ([10]; ref Ueda et al., 2004) of the same molecule?
A: • 5-[^123I]IA is safe, efficacious in humans.

Q: For `[18F]c1ccc(OC[C@@H]2CCN2)cn1` [6-[^18F]FA, 6-[^18F]fluoro-3-(2(S)-azetidinylmethoxy)pyridine], which “Conclusion: safety and efficacy” value ([1]; ref Horti et al., 2000) is on record?
A: • 6-[^18F]FA is safe and efficacious for brain imaging in monkeys.

Q: For `[18F]c1ccc([C@@H]2C[C@H]3CCC[C@@H]2N3)cn1` [(−)-[^18F]NCFHEB, [^18F]norchloro-fluoro-homoepibatidine], which “Conclusion: attainment of equilibrium” value [11] is on record?
A: • (−)-[^18F]NCFHEB attains equilibrium before 2-[^18F]FA

Q: For `CN1CCC[C@H]1c1cccnc1` [(−)-nicotine], which “effect on accumulation of 5-[^123I]IA in brain” value [8] is on record?
A: blocked in all brain regions

Q: And the “reduction in α4β2* nAChR uptake” value ([12]; frontal cortex)?
A: 32%

Q: What about the “reduction in α4β2* nAChR uptake” value ([12]; thalamus) of the same molecule?
A: 52%

Q: And the “plasma nicotine level at uptake of half the α4β2* nAChRs” value [13]?
A: 0.87 ng/mL

Q: With `[11CH3]N1CCC[C@H]1c1cccnc1` [[^11C](S)-(−)-nicotine, reference compound] as the molecule, how does the non-specific binding ([10]; human nAChR imaging, ref Scheffel et al., 2000, Villemagne et al., 1998) read?
A: high degree of non-specific binding

Q: For `[18F]c1cc(-c2cc(OC[C@@H]3CCN3)cnc2Cl)ccn1` [[^18F]NIDA522131, chloro-3-((2-(S)-azetidinyl)methoxy)-5-(2-[^18F]fluoropyridin-4-yl)pyridine], which “Conclusion: safety and efficacy” value ([1]; ref Chefer et al., 2008) is on record?
A: • [^18 F]NIDA522131 is safe and efficacious for brain imaging in monkeys.

Q: Which “Conclusion: safety and efficacy” value ([2]; ref Kassiou et al., 2002) does the source give for `[76Br]c1ccc(C2CC3CCC2N3)cn1` (stereo not drawn) [[^76Br]BrPH, [^76Br]norchlorobromoepibatidine, reference compound] here?
A: [^76Br]BrPH is safe and efficacious in baboons.
